Test results: patent publication US11312705B2, “Heteroaryl[4,3-C]pyrimidine-5-amine derivative, preparation method therefor, and medical uses thereof” (Jiangsu Hengrui Medicine Co., Ltd., priority 2017, dated 2022)

Assays:
Format in all cases: cell-based
[1] = biological target: adenosine A3 receptor (A3R) (Homo sapiens (Human), UniProt P0DMS8); experiment: Inhibition of adenosine A3 receptor cAMP signaling pathway (HTRF cAMP, CHO-K1/A3R cells); conditions: Table 2; for IC50: CHO-K1/A3R cells, forskolin 10 μM, 2Cl-IB-MECA 5 nM, cAMP HTRF
Sequence of adenosine A3 receptor (A3R) (P0DMS8 whole entry): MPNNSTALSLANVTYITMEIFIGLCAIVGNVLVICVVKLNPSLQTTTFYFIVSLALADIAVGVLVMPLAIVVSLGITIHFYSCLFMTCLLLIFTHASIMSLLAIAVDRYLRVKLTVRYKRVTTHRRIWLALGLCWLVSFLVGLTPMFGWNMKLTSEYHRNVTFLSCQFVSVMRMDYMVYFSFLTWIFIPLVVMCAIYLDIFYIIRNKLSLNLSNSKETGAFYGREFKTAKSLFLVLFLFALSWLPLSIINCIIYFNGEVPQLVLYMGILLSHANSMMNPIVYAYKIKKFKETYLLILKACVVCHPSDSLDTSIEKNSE
Source text: (§1) Test Example 1. Determination of the inhibition activity of the compounds of the present invention on the adenosine A2a receptor (A2aR) cAMP signaling pathway, the adenosine A2b receptor (A2bR) cAMP signaling pathway, the adenosine A1 receptor (A1R) cAMP signaling pathway and the adenosine A3 receptor (A3R) cAMP signaling pathway.
(§2) The inhibition activity of the compounds of the present invention on the adenosine A2a receptor cAMP signaling pathway, the adenosine A2b receptor cAMP signaling pathway, the adenosine A1 receptor cAMP signaling pathway and the adenosine A3 receptor cAMP signaling pathway was determined by the following method. The experimental method is briefly described as follows:
2.3 Adenosine A3 receptor
(§3) CHO-K1/A3R cells were cultured in DMEM/F12 medium containing 10% fetal bovine serum and 10 μg/ml puromycin. The cells were digested with the cell separation buffer during the experiment. The cells were resuspended in the balanced salt buffer containing 20 mM HEPES and 0.1% bovine serum albumin and counted, and the cell density was adjusted to 5×10^5 cells/ml. In the 384-well plate, each well was added with 12.5 μl of cell suspension, and 6.25 μl of test compound (4× concentration) formulated with the balanced salt buffer containing 20 mM HEPES, 0.1% bovine serum albumin, 54 μM rolipram and 2.7 U/ml adenosine deaminase, and the plate was incubated at room temperature for 30 minutes. Each well was then added with 6.25 μl of forskolin and 2Cl-IB-MECA (4× concentration) formulated with the balanced salt buffer containing 20 mM HEPES, 0.1% bovine serum albumin, 54 μM rolipram and 2.7 U/ml adenosine deaminase, and the plate was incubated at room temperature for 30 minutes. The final concentrations of the compounds were: 100000, 10000, 1000, 100, 10, 1, 0.1 and 0 nM. The final concentration of forskolin was 10 μM. The final concentration of 2Cl-IB-MECA was 5 nM. Intracellular cAMP concentration was detected with the cAMP dynamic 2 kit. cAMP-d2 and Anti-cAMP-Eu-Cryptate were diluted respectively with the cAMP lysis buffer at a ratio of 1:4. Each well was added with 12.5 μl of diluted cAMP-d2, followed by addition of 12.5 μl of diluted Anti-cAMP-Eu-Cryptate, and the plate was incubated at room temperature in the dark for 1 hour. The HTRF signal values were read by the PHERAstar multi-function microplate reader.

[2] = biological target: adenosine A1 receptor (A1R) (Homo sapiens (Human), UniProt P30542); experiment: Inhibition of adenosine A1 receptor cAMP signaling pathway (HTRF cAMP, CHO-K1/A1R cells); conditions: Table 2; for IC50: CHO-K1/A1R cells, forskolin 10 μM, CPA 10 nM, cAMP HTRF; for IC50 ratio (A1R/A2aR): selectivity A1R over A2aR
Sequence of adenosine A1 receptor (A1R) (P30542 whole entry): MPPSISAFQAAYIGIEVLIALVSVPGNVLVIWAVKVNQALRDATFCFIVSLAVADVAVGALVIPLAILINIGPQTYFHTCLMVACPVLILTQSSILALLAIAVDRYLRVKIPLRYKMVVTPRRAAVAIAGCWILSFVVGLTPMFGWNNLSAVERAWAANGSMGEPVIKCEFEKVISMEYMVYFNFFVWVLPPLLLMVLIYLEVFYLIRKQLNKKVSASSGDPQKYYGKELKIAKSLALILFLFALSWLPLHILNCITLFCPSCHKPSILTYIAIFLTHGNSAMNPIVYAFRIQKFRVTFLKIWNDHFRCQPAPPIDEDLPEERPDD
Source text: as §1, §2
2.2 Adenosine A1 receptor
as §3, with “CHO-K1/A1R cells were” for “CHO-K1/A3R cells were”, “serum and 1 mg/ml G418. The cells” for “serum and 10 μg/ml puromycin. The cells”, “cells were then resuspended in” for “cells were resuspended in”, “forskolin and N6-cyclopentyladenosine (4× concentration)” for “forskolin and 2Cl-IB-MECA (4× concentration)”, “concentration of CPA was 10” for “concentration of 2Cl-IB-MECA was 5”, “CPA was 10 nM. Intracellular” for “2Cl-IB-MECA was 5 nM. Intracellular”

[3] = biological target: adenosine A2a receptor (A2aR) (Homo sapiens (Human), UniProt P29274); experiment: Inhibition of adenosine A2a receptor cAMP signaling pathway (HTRF cAMP, CHO-K1/A2aR cells)
Sequence of adenosine A2a receptor (A2aR) (P29274 whole entry): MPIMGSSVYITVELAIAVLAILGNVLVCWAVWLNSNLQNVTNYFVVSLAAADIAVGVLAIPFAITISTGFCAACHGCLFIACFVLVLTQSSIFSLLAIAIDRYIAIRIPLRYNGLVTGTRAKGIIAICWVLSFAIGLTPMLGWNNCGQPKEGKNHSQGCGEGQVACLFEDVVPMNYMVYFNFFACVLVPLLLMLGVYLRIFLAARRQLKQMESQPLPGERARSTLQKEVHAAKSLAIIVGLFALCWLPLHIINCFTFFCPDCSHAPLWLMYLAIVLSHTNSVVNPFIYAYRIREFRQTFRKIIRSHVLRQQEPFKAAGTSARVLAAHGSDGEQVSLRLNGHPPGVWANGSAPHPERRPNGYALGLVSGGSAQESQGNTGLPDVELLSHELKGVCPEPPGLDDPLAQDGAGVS
Source text: as §1, §2
2.1 Adenosine A2a Receptor
CHO-K1/A2aR cells were cultured in DMEM/F12 medium containing 10% fetal bovine serum and 800 μg/ml bleomycin. The cells were digested with the cell separation buffer during the experiment. The cells were resuspended in the balanced salt buffer containing 20 mM HEPES and 0.1% bovine serum albumin and counted, and the cell density was adjusted to 10^6 cells/ml. In the 384-well plate, each well was added with 5 μl of cell suspension, and 2.5 μl of test compound (4× concentration) formulated with the balanced salt buffer containing 20 mM HEPES, 0.1% bovine serum albumin, 54 μM rolipram and 2.7 U/ml adenosine deaminase, and the plate was incubated at room temperature for 30 minutes. Each well was then added with 2.5 μl of […] (4× concentration) formulated with the balanced salt buffer containing 20 mM HEPES, 0.1% bovine serum albumin, 54 μM rolipram and 2.7 U/ml adenosine deaminase, and the plate was incubated at room temperature for 30 minutes. The final concentrations of the compounds were: 10000, 2000, 400, 80, 16, 3.2, 0.64, 0.128, 0.0256, 0.00512, and 0.001024 nM. The final concentration of […] was 20 nM. Intracellular cAMP concentration was detected with the cAMP dynamic 2 kit. cAMP-d2 and Anti-cAMP-Eu-Cryptate were diluted respectively with the cAMP lysis buffer at a ratio of 1:4. Each well was added with 5 μl of diluted cAMP-d2, followed by addition of 5 μl of diluted Anti-cAMP-Eu-Cryptate, and the plate was incubated at room temperature in the dark for 1 hour. The HTRF signal values were read by the PHERAstar multi-function microplate reader.

[4] = biological target: adenosine A2b receptor (A2bR) (Homo sapiens (Human), UniProt P29275); experiment: Inhibition of adenosine A2b receptor cAMP signaling pathway (HTRF cAMP, CHO-K1/A2bR cells); conditions: Table 3; for IC50: CHO-K1/A2bR cells, ethyl carbazole 1 μM, cAMP HTRF; for IC50 ratio (A2bR/A2aR): selectivity A2bR over A2aR
Sequence of adenosine A2b receptor (A2bR) (P29275 whole entry): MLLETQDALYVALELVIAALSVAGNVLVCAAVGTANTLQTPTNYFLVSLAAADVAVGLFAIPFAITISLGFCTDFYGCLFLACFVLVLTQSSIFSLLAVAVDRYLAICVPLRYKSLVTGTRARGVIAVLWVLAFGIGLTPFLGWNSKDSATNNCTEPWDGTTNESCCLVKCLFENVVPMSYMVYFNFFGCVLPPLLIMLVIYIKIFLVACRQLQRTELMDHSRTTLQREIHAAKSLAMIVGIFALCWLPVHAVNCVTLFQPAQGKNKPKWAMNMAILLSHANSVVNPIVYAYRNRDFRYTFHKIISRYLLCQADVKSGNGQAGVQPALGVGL
Source text: as §1, §2
2.4 Adenosine A2b receptor (A2bR)
CHO-K1/A2bR cells were cultured in DMEM/F12 medium containing 10% fetal bovine serum and 1 mg/ml G418. The cells were digested with the cell separation buffer during the experiment. The cells were resuspended in the balanced salt buffer containing 20 mM HEPES and 0.1% bovine serum albumin and counted, and the cell density was adjusted to 10^6 cells/ml. In the 384-well plate, each well was added with 5 μl of cell suspension, and 2.5 μl of test compound (4× concentration) formulated with the balanced salt buffer containing 20 mM HEPES, 0.1% bovine serum albumin, 54 μM rolipram and 2.7 U/ml adenosine deaminase, and the plate was incubated at room temperature for 30 minutes. Each well was then added with 2.5 μl of […] (4× concentration) (Torcis, 1691/10) formulated with the balanced salt buffer containing 20 mM HEPES, 0.1% bovine serum albumin, 54 μM rolipram and 2.7 U/ml adenosine deaminase, and the plate was incubated at room temperature for 30 minutes. The final concentrations of the compounds were: 100000, 10000, 1000, 100, 10, 1, 0.1 and 0 nM. The final concentration of […] was 1 μM. Intracellular cAMP concentration was detected with the cAMP dynamic 2 kit. cAMP-d2 and Anti-cAMP-Eu-Cryptate were diluted respectively with the cAMP lysis buffer at a ratio of 1:4. Each well was added with 5 μl of diluted cAMP-d2, followed by addition of 5 μl of diluted Anti-cAMP-Eu-Cryptate, and the plate was incubated at room temperature in the dark for 1 hour. The HTRF signal values were read by the PHERAstar multi-function microplate reader.

Structure (SMILES)	IC50 ratio (A3R/A2aR) [1]	IC50 [1] [nM]	IC50 [2] [nM]	IC50 ratio (A1R/A2aR) [2]	IC50 ([3]; Table 1, ethyl carbazole 20 nM) [nM]	IC50 ([3]; Table 2, ethyl carbazole 20 nM) [nM]	IC50 [4] [nM]	IC50 ratio (A2bR/A2aR) [4]	IC50 ([3]; Table 3, ethyl carbazole 20 nM) [nM]
Nc1nc(-c2ccccc2)c(-c2cc(F)c3ncccc3c2)c2nncn12 [Example 7, 8-(8-Fluoroquinolin-6-yl)-7-phenyl-[1,2,4]triazolo[4,3-c]pyrimidin-5-amine]	3.1 × 10^4	5000	16	100	0.16	0.16	–	–	–
Cc1cc(-c2c(-c3ccccc3F)nc(N)n3cnnc23)cc(Cl)n1 [Example 27, 8-(2-Chloro-6-methylpyridin-4-yl)-7-(2-fluorophenyl)-[1,2,4]triazolo[4,3-c]pyrimidin-5-amine]	>2 × 10^4	> 10000	71	142	0.5	0.5	–	–	–
Cc1cc(-c2c(-c3ccc(F)cc3)nc(N)n3cnnc23)cc(C)n1 [Example 28, 8-(2,6-Dimethylpyridin-4-yl)-7-(4-fluorophenyl)-[1,2,4]triazolo[4,3-c]pyrimidin-5-amine]	>1.9 × 10^4	> 10000	66	127	0.52	0.52	–	–	–
Cc1cc(-c2c(-c3ccccc3F)nc(N)n3cnnc23)cc(C(F)(F)F)n1 [Example 33, 7-(2-Fluorophenyl)-8-(2-methyl-6-(trifluoromethyl)pyridin-4-yl)-[1,2,4]triazolo[4,3-c]pyrimidin-5-amine]	–	–	–	–	1.77	–	134	76	1.77
Cc1cc(-c2c(-c3ccc(F)cc3F)nc(N)n3cnnc23)cc(Cl)n1 [Example 34, 8-(2-Chloro-6-methylpyridin-4-yl)-7-(2,4-difluorophenyl)-[1,2,4]triazolo[4,3-c]pyrimidin-5-amine]	–	–	–	–	2.04	–	170	83	2.04
Cc1cc(-c2c(-c3ccc(Cl)cc3F)nc(N)n3cnnc23)cc(Cl)n1 [Example 50, 7-(4-Chloro-2-fluorophenyl)-8-(2-chloro-6-methylpyridin-4-yl)-[1,2,4]triazolo[4,3-c]pyrimidin-5-amine]	–	–	–	–	3.55	–	255	72	3.55
Cc1cc(-c2c(-c3ccc(F)cc3)nc(N)n3cnnc23)cc(C(F)F)n1 [Example 51, 8-(2-(Difluoromethyl)-6-methylpyridin-4-yl)-7-(4-fluorophenyl)-[1,2,4]triazolo[4,3-c]pyrimidin-5-amine]	>10^4	> 10000	418	1161	0.36	0.36	–	–	–
Cc1cc(-c2c(-c3ccc(Cl)cc3)nc(N)n3cnnc23)cc(C(F)F)n1 [Example 52, 7-(4-Chlorophenyl)-8-(2-(difluoromethyl)-6-methylpyridin-4-yl)-[1,2,4]triazolo[4,3-c]pyrimidin-5-amine]	>10^4	> 10000	41	85	0.48	0.48	–	–	–

Compounds with a lower IC50 ([3]; Table 1, ethyl carbazole 20 nM), results first:

IC50 ratio (A3R/A2aR) [1]	IC50 [1] [nM]	IC50 [2] [nM]	IC50 ratio (A1R/A2aR) [2]	IC50 ([3]; Table 1, ethyl carbazole 20 nM) [nM]	IC50 ([3]; Table 2, ethyl carbazole 20 nM) [nM]	IC50 [4] [nM]	IC50 ratio (A2bR/A2aR) [4]	IC50 ([3]; Table 3, ethyl carbazole 20 nM) [nM]	Structure (SMILES)
>6.7 × 10^4	> 10000	102	680	0.15	0.15	–	–	–	Cc1cc(-c2c(-c3ccccc3)nc(N)n3cnnc23)cc(C)n1 [Example 11, 8-(2,6-Dimethylpyridin-4-yl)-7-phenyl-[1,2,4]triazolo[4,3-c]pyrimidin-5-amine]
1.5 × 10^4	1400	12	133	0.09	0.09	–	–	–	Cc1cc(-c2c(-c3ccccc3)nc(N)n3cnnc23)cc2cccnc12 [Example 5, 8-(8-Methylquinolin-6-yl)-7-phenyl-[1,2,4]triazolo[4,3-c]pyrimidin-5-amine]
>1.3 × 10^5	> 10000	37	463	0.08	0.08	82.6	1032	0.08	Cc1cc(-c2c(-c3ccccc3)nc(N)n3cnnc23)cc(Cl)n1 [Example 4, 8-(2-Chloro-6-methylpyridin-4-yl)-7-phenyl-[1,2,4]triazolo[4,3-c]pyrimidin-5-amine]
2.9 × 10^4	2000	18	257	0.07	0.07	–	–	–	Nc1nc(-c2ccccc2)c(-c2ccc3ncccc3c2)c2nncn12 [Example 3, 7-Phenyl-8-(quinolin-6-yl)-[1,2,4]triazolo[4,3-c]pyrimidin-5-amine]
